Source: article PMC6100724, “Proteome‐wide analysis of phospho‐regulated PDZ domain interactions” (Molecular Systems Biology, 2018)
Each block holds one sequence with its values, some of them ahead of it.

What was measured:
DLG1 PDZ3 = experiment: Phosphomimetic ProP-PD selection with NGS; assay type: binding, human; conditions: mean of selections 1-3; bait DLG1 PDZ3
Description: (§1) Phage selections were carried out for four rounds following a protocol by Huang and Sidhu (Huang & Sidhu, 2011) with minor modifications. Non‐specific binding phage was removed by pre‐selections against immobilized GST throughout the selection. The selections against the (pre‐)phosphorylated wild‐type library were performed in 50 mM HEPES (pH 7.4) and 150 mM NaCl (HBS) following the same procedure after pre‐phosphorylation of the library.
(§2) • Immobilize proteins (15 μg in 100 μl PBS) in a 96‐well MaxiSorp microtiter plate (NUNC) overnight at 4°C. • Start a 2YT culture of E. coli Omnimax supplemented with 100 μg/ml tetracycline to retain the F pilus epitope. • Block the wells with 200 μl 0.5% BSA in PBS for 2 h at 4°C. • Precipitate naïve phage library (10^11 cfu per selection) or amplified phage pool from the previous round of selection by adding one‐fifth the volume of PEG/NaCl. • Incubate on ice for 10 min, and pellet precipitated phage by centrifugation at 5,300 g for 15 min. Resuspend the phage pellet in 100 μl PBS per selection. • Add 100 μl of phage solution to the GST‐coated pre‐selection wells and incubate for 1 h. • Transfer the phage solution to the immobilized target proteins and allow it to bind for 2 h at 8°C. • Wash the plate four times with 200 μl cold wash buffer (PBS, 0.05% Tween‐20). • Elute bound phage by incubation with 100 μl log phase (0.6–0.8 OD600) E. coli Omnimax for 30 min at 37°C with shaking (200 RPM). • Add 10^12 cfu/ml M13K07 helper phage for hyperinfection of the bacteria and incubate as above for 45 min. • Transfer the bacterial culture to 10 ml 2YT supplemented with 50 μg/ml carbenicillin, 25 μg/ml kanamycin, and 300 μM IPTG and incubate overnight at 37°C while shaking. • Perform phage pool ELISA to monitor the progress of the selection as described previously (Huang & Sidhu, 2011).
(§3) The naïve library and the enriched phage pools of the third day of selection were amplified and barcoded by PCR and analyzed by NGS as described elsewhere (McLaughlin & Sidhu, 2013; Ivarsson et al, 2014). The reads were demultiplexed using the barcode sequences and filtered by discarding sequences with a Phred quality score under 30. Sequences were mapped to the original library using Bowtie (Langmead et al, 2009) with two mismatches between reads and library sequence. Nucleotide mutations leading to amino acid substitutions were subsequently removed. Cutoff values of NGS counts were assigned for each pool. PWMs were generated based on the remaining peptides (aligned on the C‐termini) using WebLogo (Crooks et al, 2004).
(§4) However, there was no significant correlation of the actual read counts (selection “strength”) and the initial representation in the library, reflecting the strong selection during phage display (wt+mimetic: P‐value: 0.49, ρ = −0.08, mimetic only: P‐value: 0.069, ρ = −0.2, wt only: P‐value: 0.12, ρ = 0.17). Consequently, the amount of reads for each binder after phage display is not a function of the amount of input reads in the naïve library and no modeling based on the input library frequencies to score the interactions is necessary. To allow for comparison between replicate selections, we used the fraction of NGS reads within a certain set, instead of the absolute number of NGS reads, as the absolute numbers differ between different NGS batches.

Scribble PDZ1 [1] = biological target: T1, Scribble PDZ1 (Homo sapiens, UniProt Q14160); experiment: Pre-phosphorylation ProP-PD: wild-type library treated with RPS6KA1 or not, selection with NGS; assay type: binding; conditions: mean of the two selections, bait Scribble PDZ1; for Phosphorylated selection Mean fraction: Pre-phosphorylation with RPS6KA1; for Unphosphorylated selection Mean fraction: Without Kinase
T1 construct: human Scribble PDZ1 aa 719–829 in; made in house; host or cells: E. coli BL21 Gold (DE3)
T1 sequence (Q14160 719-829): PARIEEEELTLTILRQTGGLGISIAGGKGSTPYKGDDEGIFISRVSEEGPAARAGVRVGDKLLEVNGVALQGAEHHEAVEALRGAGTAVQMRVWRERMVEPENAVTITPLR
Description: For pre‐phosphorylation of the wild‐type ProP‐PD library, we obtained activated RPS6KA1 (Thermo Fisher). The time and amount of kinase required to phosphorylate the ProP‐PD library were tested in a phosphorylation assay.
as §1, §2
• Precipitate the naive wild‐type phage library (as described above, 1.8 × 10^10 cfu phage per selection). • Resuspend the precipitated phage pellets in 100 μl Kinase buffer per selection and add ATP (100 μM final concentration) and RPS6KA1 (500 ng/ml) to the phage solution. In parallel, prepare a negative control where only ATP is added to the phage pool. • Incubate the phosphorylation reaction for 2 h at room temperature. Stop the reaction through PEG/NaCl precipitation (as described above). • Resuspend the phage pool in 100 μl HBS.
During the 4 days of pre‐phosphorylation ProP‐PD selections, the input phage library of each day of selection was subjected to phosphorylation prior to phage selection.
as §3

DLG1 PDZ1 = experiment: Phosphomimetic ProP-PD selection with NGS; assay type: binding, human; conditions: mean of selections 1-3, bait DLG1 PDZ1; for Mean fraction #NGS counts mimetic peptide / total count selection: phosphomimetic peptide; for Mean fraction #NGS counts wt peptide / total counts selection: wild type peptide
Description: as §1, §2, §3, §4

DLG1 PDZ2 = biological target: T2, DLG1 PDZ2 (Homo sapiens, UniProt Q12959); experiment: Phosphomimetic ProP-PD selection with NGS; assay type: binding; conditions: mean of selections 1-3, bait DLG1 PDZ2
T2 construct: human DLG1 PDZ2 aa 311–407 in a modified pRSET vector 40; made in house; host or cells: E. coli BL21 Gold (DE3)
T2 sequence (Q12959 311-407): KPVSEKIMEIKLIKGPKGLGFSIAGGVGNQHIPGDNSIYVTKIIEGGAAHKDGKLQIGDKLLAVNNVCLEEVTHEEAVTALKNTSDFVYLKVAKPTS
Description: as §1, §2, §3, §4

Scribble PDZ3 = experiment: Phosphomimetic ProP-PD selection with NGS; assay type: binding, human; conditions: bait Scribble PDZ3
Description: as §1, §2, §3, §4

Scribble PDZ2 = experiment: Phosphomimetic ProP-PD selection with NGS; assay type: binding, human; conditions: bait Scribble PDZ2
Description: as §1, §2, §3, §4

Scribble PDZ1 [2] = biological target: T1, Scribble PDZ1; experiment: Phosphomimetic ProP-PD selection with NGS; assay type: binding; conditions: bait Scribble PDZ1; mean of selections 1-3
Description: as §1, §2, §3, §4

[3] = mean of selections 1 and 2 (selection 3 empty)

Sequence: RATEPGSGL
Mean fraction #NGS counts mimetic peptide / total count selection (DLG1 PDZ3): 0

Sequence: PANRRETPV
Mean fraction #NGS counts mimetic peptide / total count selection (DLG1 PDZ3): 0.0003587
Mean fraction #NGS counts mimetic peptide / total count selection (DLG1 PDZ1): 3.546e-5

Sequence: DKESFLTWL [YAP1]
Phosphorylated selection Mean fraction (Scribble PDZ1 [1]): 0.0002294
Unphosphorylated selection Mean fraction (Scribble PDZ1 [1]): 0.0001256

Sequence: YSPSMTMSV
Mean fraction #NGS counts wt peptide / total counts selection (DLG1 PDZ3): 7.133e-5

Sequence: SRDRKETSI [RALBP1]
Phosphorylated selection Mean fraction (Scribble PDZ1 [1]): 0
Unphosphorylated selection Mean fraction (Scribble PDZ1 [1]): 1.381e-5

Sequence: VVHTPETEV
Mean fraction #NGS counts mimetic peptide / total count selection (DLG1 PDZ2): 5.021e-5
Mean fraction #NGS counts mimetic peptide / total count selection (Scribble PDZ2; mean over selections): 0.0009495
Mean fraction #NGS counts mimetic peptide / total count selection (Scribble PDZ3; mean of selections 1-3, phosphomimetic peptide): 1.817e-5
Mean fraction #NGS counts mimetic peptide / total count selection (DLG1 PDZ1): 0.0004495

Sequence: TNSSSYSHI
Mean fraction #NGS counts wt peptide / total counts selection (DLG1 PDZ3): 0.001855

Sequence: TKGISITSI [GNRHR2]
Phosphorylated selection Mean fraction (Scribble PDZ1 [1]): 3.213e-5
Unphosphorylated selection Mean fraction (Scribble PDZ1 [1]): 3.175e-5

Sequence: TNSSSYEHI
Mean fraction #NGS counts mimetic peptide / total count selection (DLG1 PDZ3): 0

Sequence: RSRSIETDV
Mean fraction #NGS counts mimetic peptide / total count selection (Scribble PDZ1 [2]): 0.0006725
Mean fraction #NGS counts mimetic peptide / total count selection (DLG1 PDZ2): 0.009109
Mean fraction #NGS counts mimetic peptide / total count selection (Scribble PDZ2; [3]): 0.06648
Mean fraction #NGS counts mimetic peptide / total count selection (Scribble PDZ3; mean over selections 1-3): 0.001306
Mean fraction #NGS counts mimetic peptide / total count selection (DLG1 PDZ1): 0.001793

Sequence: KRSFIESNV
Mean fraction #NGS counts wt peptide / total counts selection (Scribble PDZ1 [2]): 0.03115
Mean fraction #NGS counts wt peptide / total counts selection (DLG1 PDZ2; wild type peptide): 0.007809
Mean fraction #NGS counts wt peptide / total counts selection (Scribble PDZ2; [3]): 0.2119
Mean fraction #NGS counts wt peptide / total counts selection (Scribble PDZ3; mean over selections 1-3): 0.07707
Mean fraction #NGS counts wt peptide / total counts selection (DLG1 PDZ1): 0.0007809

Sequence: PANRRTTPV
Mean fraction #NGS counts wt peptide / total counts selection (DLG1 PDZ3): 0
Mean fraction #NGS counts wt peptide / total counts selection (DLG1 PDZ1): 0

Sequence: SRDRKETSI
Mean fraction #NGS counts wt peptide / total counts selection (DLG1 PDZ2): 0.0004401
Mean fraction #NGS counts wt peptide / total counts selection (Scribble PDZ3; mean over selections 1-3): 0.00255
Mean fraction #NGS counts wt peptide / total counts selection (DLG1 PDZ3): 0.002721

Second part, led by results:

Phosphorylated selection Mean fraction (Scribble PDZ1 [1]): 0
Unphosphorylated selection Mean fraction (Scribble PDZ1 [1]): 2.348e-5
Sequence: RSRSISTDV [FAM163B]

Phosphorylated selection Mean fraction (Scribble PDZ1 [1]): 0.0009701
Unphosphorylated selection Mean fraction (Scribble PDZ1 [1]): 0.003212
Sequence: PIHSLETSL [ATP2B2]

Phosphorylated selection Mean fraction (Scribble PDZ1 [1]): 0.001062
Unphosphorylated selection Mean fraction (Scribble PDZ1 [1]): 0.0007483
Sequence: LPKIKETTV [FRMPD4]

Mean fraction #NGS counts wt peptide / total counts selection (DLG1 PDZ2): 0.3203
Sequence: GGKRKETLV
Mean fraction #NGS counts wt peptide / total counts selection (Scribble PDZ3; mean over selections 1-3): 6.172e-5
Mean fraction #NGS counts wt peptide / total counts selection (DLG1 PDZ3): 0.06478
Mean fraction #NGS counts wt peptide / total counts selection (DLG1 PDZ1): 0.3267

Mean fraction #NGS counts mimetic peptide / total count selection (DLG1 PDZ2): 0
Sequence: SRDRKEESI
Mean fraction #NGS counts mimetic peptide / total count selection (Scribble PDZ3; mean over selections 1-3): 2.019e-6
Mean fraction #NGS counts mimetic peptide / total count selection (DLG1 PDZ3): 5.904e-6

Mean fraction #NGS counts mimetic peptide / total count selection (DLG1 PDZ2; phosphomimetic peptide): 0.002811
Sequence: EIKLKTSFF
Mean fraction #NGS counts mimetic peptide / total count selection (Scribble PDZ3; mean over selections 1-3): 6.807e-5
Mean fraction #NGS counts mimetic peptide / total count selection (DLG1 PDZ3): 0.01375
Mean fraction #NGS counts mimetic peptide / total count selection (DLG1 PDZ1): 0.06227

Mean fraction #NGS counts wt peptide / total counts selection (Scribble PDZ1 [2]): 0.01417
Mean fraction #NGS counts wt peptide / total counts selection (DLG1 PDZ2): 0.0002151
Sequence: TMFLRETSL
Mean fraction #NGS counts wt peptide / total counts selection (Scribble PDZ2; mean over selections): 0.008166
Mean fraction #NGS counts wt peptide / total counts selection (Scribble PDZ3; mean over selections 1-3): 0.0186
Mean fraction #NGS counts wt peptide / total counts selection (DLG1 PDZ1): 0.0004495

Phosphorylated selection Mean fraction (Scribble PDZ1 [1]): 0.0004582
Unphosphorylated selection Mean fraction (Scribble PDZ1 [1]): 1.656e-5
Sequence: SIDLWETAL [SLC15A5]
